# According to patent US20250177340A1, “Tartaric Acid Analogs and Uses Thereof” (Lapix Therapeutics, Inc., priority 2021, published 2025):
# Tested on: CTLA-4
# Test: Percent CTLA-4+/CD8+ T-cells in splenocytes after a single dose, melanoma murine model
# Assay type: in vivo, mice
# Method: The pharmacodynamic (PD) effects of a single IV dose of Compound B in a melanoma murine model were evaluated. B16F10 melanoma cells were grown in RPMI 1640 media supplemented with 10% FBS and antibiotics (penicillin/streptomycin) using T75 flasks. When cells reached 70-80% confluency, they were treated with 3 ml of 0.25% Trypsin/EDTA. Afterward, detached cells were harvested. A single-cell suspension was prepared in PBS. An IV injection of 10^5 cells in mice marked day −3 of the experiment.
# Animals were housed four per cage, and had access to food and water ad libitum. Compound B was dissolved in sterile PBS, and pH was adjusted to approximately 7.5. Sterile PBS served as control.
# Three days after the IV injection of melanoma cells, animals in the baseline group (n=3) were sacrificed and their spleens were collected for KLRG-1, CTLA-4, and PD-1 analysis. At each predetermined time-point (24, 48, and 120 hours after dosing) three animals from each group were sacrificed for splenocyte analysis of KLRG-1, CTLA-4, and PD-1 expression levels, and expression levels were compared to baseline.
# Spleens collected for splenocyte analysis were prepared into a single-cell suspension for cellular phenotyping by flow cytometry. Cells were stained and gated for CD8. Percent KLRG-1+, CTLA-4+, and PD-1+ CD8+ T-cells were evaluated using flow cytometry.
smiles,measurement,setting,value
"O=C(O)[C@H](O)[C@@H](O)C(=O)OCCCc1ccccc1 [Compound B, (2R,3R)-2,3-dihydroxy-4-oxo-4-(3-phenylpropoxy)butanoic acid]","CTLA-4+/CD8+ T-cells, mean","0.14 mg/mouse IV single dose, 24 h",9.8%
same,"CTLA-4+/CD8+ T-cells, mean","0.14 mg/mouse IV single dose, 48 h",5.3%
same,"CTLA-4+/CD8+ T-cells, mean","0.14 mg/mouse IV single dose, 120 h",11.9%
same,"CTLA-4+/CD8+ T-cells, mean","0.7 mg/mouse IV single dose, 24 h",8.5%
same,"CTLA-4+/CD8+ T-cells, mean","0.7 mg/mouse IV single dose, 48 h",5.7%
same,"CTLA-4+/CD8+ T-cells, mean","0.7 mg/mouse IV single dose, 120 h",12.5%
same,"CTLA-4+/CD8+ T-cells, mean","1.4 mg/mouse IV single dose, 24 h",7.4%
same,"CTLA-4+/CD8+ T-cells, mean","1.4 mg/mouse IV single dose, 48 h",5.6%
same,"CTLA-4+/CD8+ T-cells, mean","1.4 mg/mouse IV single dose, 120 h",11.7%
same,decrease from baseline in CTLA-4+/CD8+ T-cells,"single IV dose (0.14, 0.7, 1.4 mg), 48 h",approximately 35%
same,reduction in CTLA-4+/CD8+ T-cells compared to same time point in control group,"single IV injection, 48 h",approximately 38%
